# According to patent publication US9980943B2, “Methods of treating muscular dystrophy” (BOARD OF REGENTS OF THE NEVADA SYSTEM OF HIGHER EDUCATION, …, priority 2013, dated 2018):
# How the values were obtained:
# Format in all cases: cell-based, mouse
# [1] = test system: β-galactosidase in CMV-LacZ C2C12 myotubes; test: CMV-LacZ secondary screen in C2C12 myotubes (β-Gal stabilizing assay); conditions: for CMV-LACZ in Myotubes, signal relative to DMSO: C2C12 CMV-LacZ myotubes, fold relative to DMSO; for CMV-LACZ in Myotubes (β-galactosidase activity relative to DMSO): CMV-LacZ C2C12 myotubes, 96-well format
# Text: In order to determine compounds that acted to stabilize β-gal in myogenic cells, a CMV-LacZ C2C12 cell line was used in a secondary screen. The EGFP gene from the pEGFP (Clontech) vector was replaced by LACZ PCR product with digests of the vector/PCR product performed using EcoRI (NEB) and NotI (NEB) and ligated using T4 DNA Ligase (NEB) following standard procedures to produce the CMV-LACZ vector. The LACZ gene was generated by PCR from the pBK-RSV (Stratagene) vector using primers LACZ EcoRI F- and LACZ NotI R-. The CMV-LACZ vector was then digested with AfIII (NEB) to linearize the construct, which was then transfected in C2C12 myoblasts using Lipofectamine 2000 (Invitrogen) following the manufacturer's instructions. […] Clonal lines were selected and screened for βgal levels using the myoblast FDG assay.
# The assays were used the original 96-well format and new dose-response curves for myoblasts (N=3-6 replicates for each data point), myotubes (N=3-6 replicates for data point), and CMV-LacZ secondary assay (N=2 replicates for each data point) using concentrations of 0.5 μM, 1 μM, 5 μM, 10 μM, 20 μM, and 40 μM (Tables 9-16).
# [2] = test system: α7 integrin (LacZ reporter in α7βgal+/− myoblasts); test: Myoblast α7+/LacZ integrin FDG assay (Burkin assay in myoblasts, 96-well); conditions: α7+/LacZ myoblasts, 96-well
# [3] = test system: α7 integrin (LacZ reporter in α7+/LacZ myotubes); test: Myotube α7 integrin FDG assay (Burkin assay in myotubes, 96-well); conditions: myotubes
SMILES,"CMV-LACZ in Myotubes, signal relative to DMSO ([1]; 5 uM)","CMV-LACZ in Myotubes, signal relative to DMSO ([1]; 10 uM)","CMV-LACZ in Myotubes, signal relative to DMSO ([1]; 20 uM)","CMV-LACZ in Myotubes, signal relative to DMSO ([1]; 40 uM)","Burkin Assay in Myoblasts, signal relative to DMSO ([2]; 0.5 uM)","Burkin Assay in Myoblasts, signal relative to DMSO ([2]; 1 uM)","Burkin Assay in Myoblasts, signal relative to DMSO ([2]; 5 uM)","Burkin Assay in Myoblasts, signal relative to DMSO ([2]; 10 uM)","Burkin Assay in Myoblasts, value relative to DMSO ([2]; 0.5 uM)","Burkin Assay in Myoblasts, value relative to DMSO ([2]; 1 uM)","Burkin Assay in Myoblasts, value relative to DMSO ([2]; 5 uM)","Burkin Assay in Myoblasts, value relative to DMSO ([2]; 10 uM)","Burkin Assay in Myoblasts, value relative to DMSO ([2]; 20 uM)","Burkin Assay in Myoblasts, value relative to DMSO ([2]; 40 uM)",Burkin Assay in Myotubes (signal relative to DMSO) ([3]; 0.5 uM),Burkin Assay in Myotubes (signal relative to DMSO) ([3]; 1 uM),Burkin Assay in Myotubes (signal relative to DMSO) ([3]; 5 uM),Burkin Assay in Myotubes (signal relative to DMSO) ([3]; 10 uM),Burkin Assay in Myotubes (signal relative to DMSO) ([3]; 20 uM),Burkin Assay in Myotubes (signal relative to DMSO) ([3]; 40 uM),further results
Cc1cccc(NC(=O)c2cc3ccccc3oc2=O)c1 [MLS001209245-01],0.8568,0.9675,0.9662,0.9952,1.039,1.132,1.021,1.071,–,–,–,–,–,–,–,–,–,–,–,–,"Burkin Assay in Myoblasts, signal relative to DMSO ([2]; 20 uM): 1.1; Burkin Assay in Myoblasts, signal relative to DMSO ([2]; 40 uM): 1.039; Burkin Assay in Myotubes, α7 integrin LacZ reporter signal relative to DMSO ([3]; 0.5 uM): 1.113; Burkin Assay in Myotubes, α7 integrin LacZ reporter signal relative to DMSO ([3]; 1 uM): 1.245; Burkin Assay in Myotubes, α7 integrin LacZ reporter signal relative to DMSO ([3]; 5 uM): 0.9667; Burkin Assay in Myotubes, α7 integrin LacZ reporter signal relative to DMSO ([3]; 10 uM): 0.9979; Burkin Assay in Myotubes, α7 integrin LacZ reporter signal relative to DMSO ([3]; 20 uM): 0.6876; Burkin Assay in Myotubes, α7 integrin LacZ reporter signal relative to DMSO ([3]; 40 uM): 0.5729"
Cc1ccc(NS(=O)(=O)c2ccc3c(c2)NC(=O)CCS3)c(Br)c1 [MLS001095231-01],1.035,0.7409,0.9181,0.6229,0.9692,0.9682,0.9242,0.8637,–,–,–,–,–,–,–,–,–,–,–,–,"Burkin Assay in Myoblasts, signal relative to DMSO ([2]; 20 uM): 0.9197; Burkin Assay in Myoblasts, signal relative to DMSO ([2]; 40 uM): 0.728; Burkin Assay in Myotubes, α7 integrin LacZ reporter signal relative to DMSO ([3]; 0.5 uM): 1.005; Burkin Assay in Myotubes, α7 integrin LacZ reporter signal relative to DMSO ([3]; 1 uM): 0.9382; Burkin Assay in Myotubes, α7 integrin LacZ reporter signal relative to DMSO ([3]; 5 uM): 1.022; Burkin Assay in Myotubes, α7 integrin LacZ reporter signal relative to DMSO ([3]; 10 uM): 0.9695; Burkin Assay in Myotubes, α7 integrin LacZ reporter signal relative to DMSO ([3]; 20 uM): 0.9863; Burkin Assay in Myotubes, α7 integrin LacZ reporter signal relative to DMSO ([3]; 40 uM): 0.8356"
C[C@H]1CNC(=O)c2c(C(=O)Nc3ccc(CNC(=O)OC(C)(C)C)cc3)ncn21 [MLS003126425-01],–,–,–,–,–,–,–,–,1.146,1.1398,1.282,1.254,1.13,0.4401,1.104,1.203,1.422,1.6782,0.7372,0.5208,CMV-LACZ in Myotubes (β-galactosidase activity relative to DMSO) ([1]; 5 uM): 1.354; CMV-LACZ in Myotubes (β-galactosidase activity relative to DMSO) ([1]; 10 uM): 0.8902; CMV-LACZ in Myotubes (β-galactosidase activity relative to DMSO) ([1]; 20 uM): 0.743; CMV-LACZ in Myotubes (β-galactosidase activity relative to DMSO) ([1]; 40 uM): 0.7123
O=c1[nH]c(C2CCCN(S(=O)(=O)c3ccccc3)C2)nc2c1nnn2Cc1cccc(Cl)c1 (centres unmarked) [MLS001217286-01],–,–,–,–,–,–,–,–,0.7428,0.8506,0.7671,0.8273,1.006,1.068,0.7617,0.9911,1.193,1.219,1.095,0.5964,CMV-LACZ in Myotubes (β-galactosidase activity relative to DMSO) ([1]; 5 uM): 0.9599; CMV-LACZ in Myotubes (β-galactosidase activity relative to DMSO) ([1]; 10 uM): 1.227; CMV-LACZ in Myotubes (β-galactosidase activity relative to DMSO) ([1]; 20 uM): 0.3991; CMV-LACZ in Myotubes (β-galactosidase activity relative to DMSO) ([1]; 40 uM): 0.3604
O=C(Nc1ccc(S(=O)(=O)Nc2nccs2)cc1)c1ccccc1OC(F)F [MLS002164687-01],–,–,–,–,–,–,–,–,–,–,–,–,–,–,–,–,–,–,–,–,"CMV-LACZ in Myotubes (β-galactosidase activity relative to DMSO) ([1]; 5 uM): 0.7625; CMV-LACZ in Myotubes (β-galactosidase activity relative to DMSO) ([1]; 10 uM): 0.922; CMV-LACZ in Myotubes (β-galactosidase activity relative to DMSO) ([1]; 20 uM): 0.968; CMV-LACZ in Myotubes (β-galactosidase activity relative to DMSO) ([1]; 40 uM): 1.113; fold induction at 0.5 µM ([2]; Mus musculus, Myoblast, 48 h, 0.5 uM, read-out: Burkin Assay in Myoblasts, value relative to DMSO): 0.775; fold induction at 1 µM ([2]; Mus musculus, Myoblast, 48 h, 1 uM, read-out: Burkin Assay in Myoblasts, value relative to DMSO): 0.819; fold induction at 5 µM ([2]; Mus musculus, Myoblast, 48 h, 5 uM, read-out: Burkin Assay in Myoblasts, value relative to DMSO): 0.695; fold induction at 10 µM ([2]; Mus musculus, Myoblast, 48 h, 10 uM, read-out: Burkin Assay in Myoblasts, value relative to DMSO): 0.849; fold induction at 20 µM ([2]; Mus musculus, Myoblast, 48 h, 20 uM, read-out: Burkin Assay in Myoblasts, value relative to DMSO): 0.838; fold induction at 40 µM ([2]; Mus musculus, Myoblast, 48 h, 40 uM, read-out: Burkin Assay in Myoblasts, value relative to DMSO): 0.819; fold induction at 0.5 µM ([3]; Mus musculus, Myotube, 0.5 uM, read-out: Burkin Assay in Myotubes (signal relative to DMSO)): 0.853; fold induction at 1 µM ([3]; Mus musculus, Myotube, 1 uM, read-out: Burkin Assay in Myotubes (signal relative to DMSO)): 1; fold induction at 5 µM ([3]; Mus musculus, Myotube, 5 uM, read-out: Burkin Assay in Myotubes (signal relative to DMSO)): 1.23; fold induction at 10 µM ([3]; Mus musculus, Myotube, 10 uM, read-out: Burkin Assay in Myotubes (signal relative to DMSO)): 1.37; fold induction at 20 µM ([3]; Mus musculus, Myotube, 20 uM, read-out: Burkin Assay in Myotubes (signal relative to DMSO)): 1.02; fold induction at 40 µM ([3]; Mus musculus, Myotube, 40 uM, read-out: Burkin Assay in Myotubes (signal relative to DMSO)): 1.06"
CC(=O)Nc1c(-c2ccc(Cl)cc2)c(=O)c2ccccc2n1C [MLS001214461-01],0.8137,0.9363,0.9167,0.9566,–,–,–,–,1.064,0.9241,0.8964,0.8123,0.8472,0.767,1.207,0.9586,1.072,0.9457,1.087,0.8844,–
CC(C)N(CCO)C(=O)CCc1nnc(CCCc2ccccc2)o1 [MLS000733703-01],1.1188,0.8654,0.9583,0.7965,–,–,–,–,0.988,0.9592,0.8919,0.8734,0.8635,0.8463,1.063,1.128,0.8779,1.147,0.9957,0.894,–
CCCNC(=S)N1CCC(NC(=O)c2ccc(OC)cc2)CC1 [MLS001211651-01],0.8714,0.8433,0.8465,0.977,1.061,1.124,1.011,0.972,–,–,–,–,–,–,–,–,–,–,–,–,"Burkin Assay in Myoblasts, signal relative to DMSO ([2]; 20 uM): 0.9909; Burkin Assay in Myoblasts, signal relative to DMSO ([2]; 40 uM): 1.026; Burkin Assay in Myotubes, α7 integrin LacZ reporter signal relative to DMSO ([3]; 0.5 uM): 0.8543; Burkin Assay in Myotubes, α7 integrin LacZ reporter signal relative to DMSO ([3]; 1 uM): 0.913; Burkin Assay in Myotubes, α7 integrin LacZ reporter signal relative to DMSO ([3]; 5 uM): 1.116; Burkin Assay in Myotubes, α7 integrin LacZ reporter signal relative to DMSO ([3]; 10 uM): 1.025; Burkin Assay in Myotubes, α7 integrin LacZ reporter signal relative to DMSO ([3]; 20 uM): 1.076; Burkin Assay in Myotubes, α7 integrin LacZ reporter signal relative to DMSO ([3]; 40 uM): 1.027"
